Measurements from publication PMC10650714, “Double Attack to Oxidative Stress in Neurodegenerative Disorders: MAO-B and Nrf2 as Elected Targets” (Molecules, 2023).
Entries after “also recorded” stand apart in the source; their conditions may differ. Where two headings read alike, the source gives them in different places.

Legend:
[1] = tested on: Nrf2 nuclear translocation in SH-SY5Y cells; assay: Nrf2 nuclear translocation (Western blot of nuclear extracts); assay type: cell-based, human
Description: In physiological conditions, the repressor Keap1 traps Nrf2 at the cytosolic level, preventing the activation of Nrf2 pathway. The disruption of Keap1–Nrf2 interaction allows for Nrf2 nuclear translocation, thus resulting in the transcriptional activation of its target cytoprotective genes. […] We and others have previously developed several compounds bearing caffeic and ferulic fragments able to activate Nrf2 in terms of the up-regulation of Nrf2 expression, translocation into the nucleus and induction of the Nrf2-dependent defensive genes, with (pro)electrophilic features emerging as key players. Herein, to analyse the effect of the new molecules on the Nrf2 downstream cascade, the ability of compounds 1–5 to increase Nrf2 nuclear translocation was preliminary evaluated as a pivotal step in Nrf2 signalling activation (Figure 6). Based on MAO-B inhibitory potency and cell toxicity assay, compounds were studied in SH-SY5Y human neuroblastoma cells at the concentration of 5 μM. Given the high structural analogy with our derivatives, we selected the well-known Nrf2 inducer CAPE [37, 38] as the reference compound, and verified its ability to induce Nrf2 nuclear translocation at different concentrations, ranging from 5 µM to 50 µM in our experimental model (Figure S6). Nrf2 nuclear content was assessed via Western blot analysis. […] Consistently, data from literature highlight discrepancies about pioglitazone-mediated Nrf2 activation, indicating its ability to activate Nrf2 in longer timeframes and different in vitro and in vivo experimental conditions. […] The preliminary docking performed on human Keap-1 confirms the excellent positioning of compound 2 within the BTB domain pocket, where cysteine 151 is located (see Figure S5). […] Particularly, all these new molecules hold the characteristic (pro)electrophilic fragments, which however, in this case, resulted to be insufficient to activate Nrf2, as reported for other ferulic and caffeic derivatives. In this regard, optimal target interaction might play a major role, but further biological investigations are needed to fully clarify the mechanism of Nrf2 activation and the effect on the downstream expression of cytoprotective genes.
SH-SY5Y cells (5 × 106) were seeded in […] dishes and treated for 3 h with 5 μM compounds; afterward, the medium was removed, and cells were washed twice with ice-cold PBS. Cells were subsequently homogenized 15 times using a glass−glass Dounce homogenizer in 0.32 M sucrose, buffered with 20 mM Tris- HCl (pH 7.4), containing 2 mM EDTA, 0.5 mM EGTA, 50 mM β-mercaptoethanol and 20 μg/mL leupeptin, apotrinin and pepstatin. The homogenate was centrifuged at 300× g for 5 min to obtain the nuclear fraction. An aliquot of the nuclear fraction was used for protein assay via the Bradford method, whereas the remaining was boiled for 5 min after dilution with sample buffer and subjected to polyacrylamide gel electrophoresis and immunoblotting, as described.

[2] = target: T1, recombinant hMAO-A (Homo sapiens, UniProt P21397); assay: hMAO-A activity assay (kynuramine, fluorimetric); assay type: biochemical
T1 construct: purchased Fluka-Sigma-Aldrich s.r.l; (Italy); host or cells: Baculovirus infected BT1 cells
T1 sequence (P21397 1-527): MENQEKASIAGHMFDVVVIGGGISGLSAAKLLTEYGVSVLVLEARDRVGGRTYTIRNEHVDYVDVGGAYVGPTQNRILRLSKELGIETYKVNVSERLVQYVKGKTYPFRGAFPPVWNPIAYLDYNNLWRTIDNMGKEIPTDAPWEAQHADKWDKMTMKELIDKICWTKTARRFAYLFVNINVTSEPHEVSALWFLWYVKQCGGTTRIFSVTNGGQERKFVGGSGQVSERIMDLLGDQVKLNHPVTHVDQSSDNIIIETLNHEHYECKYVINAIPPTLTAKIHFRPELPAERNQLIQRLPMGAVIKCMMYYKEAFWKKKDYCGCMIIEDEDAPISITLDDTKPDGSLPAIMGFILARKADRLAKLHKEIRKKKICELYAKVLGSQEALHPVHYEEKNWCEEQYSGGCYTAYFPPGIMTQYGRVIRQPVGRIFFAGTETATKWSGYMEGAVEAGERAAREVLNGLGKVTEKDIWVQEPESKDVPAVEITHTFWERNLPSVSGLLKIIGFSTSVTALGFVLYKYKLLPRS
Experimental: Human recombinant hMAO-A and hMAO-B expressed in Baculovirus infected BT1 cells (5 mg/mL) and horseradish peroxidases were purchased from Fluka-Sigma-Aldrich s.r.l. (Italy). A Cary Eclipse fluorimeter (Varian Inc., Palo Alto, CA, USA) was used for fluorescence measurements. […] At first, the peroxidase-coupled continuous assay that detect the H2O2 generation rate was considered. It uses the Amplex Red reagent as the fluorogenic substrate for horseradish peroxidase.
By applying this method, hMAO activity assays were performed in K/Pi 0.1 M, EDTA 1 mM (total volume: 200 μL; pH 7.4, T = 37 °C), in the presence and in absence of various concentrations of the different compounds (0.2–20 μM and 2–50 μM in the case of hMAO–B and hMAO-A, respectively).
MAOs stock solutions were diluted with assay buffer in the presence or absence of the tested compound to obtain a final concentration of 0.005 mg/mL for MAO-A and 0.010 mg/mL for MAO-B; then, kynuramine (10–300 μM final concentration) was added to the assay solution. After 45–60 min of incubation at 37 °C, the reaction was stopped by the addition of 2 M NaOH (80 μL) and 480 μL of distilled water. Kynuramine deaminated by MAO spontaneously cyclizes to provide 4-hydroxyquinoline, the amount of which was determined by the fluorescence intensity of the peak of its emission spectra (λexc = 330 nm and λem 330–530 nm). Then, the rate of reaction was calculated using a specific calibration curve (in the presence of the same amount of the tested compound) built with the standard 4-hydroxyquinoline.
Under these experimental conditions, the Michaelis–Menten equation for rate of reaction, can be simplified as follows: V ≈ (Vmax/KM) [E]0[S]0 [49]. In the presence of an inhibitor, one or both the kinetic parameters, KM and Vmax, might be affected by its presence, depending on the inhibition mechanism. In particular, in the presence of a reversible inhibitor, both the kinetic parameters could be affected, and the apparent kinetic parameter would then become: KM I = KM,0 (1 + [I]/Ki)/(1 + [I]/(αKi)), and VmaxI = Vmax0/(1 + [I]/(αKi)), where α is the factor indicating how much the dissociation constant of the enzyme-substrate-I complex is different from that of the enzyme–I complex (also named Ki). Consequently, the ratio of the initial rate of reaction in the absence (Vo) and in the presence (VI) of the tested compound (Vo/VI) can be simplified to the ratio of (Vmax/KM)o/(Vmax/KM)I ≈ (1 + [I]/Ki).
To study the mechanism of inhibition, the steady-state kinetic parameters (Vmax and Km) of MAO-A and MAO-B were determined by performing experiments at different substrate concentrations and in the absence and presence of different concentrations of the tested compound. Vmax and Km were calculated by fitting the Michaelis–Menten equation to the experimental data (initial rate of reactions vs. substrate concentrations), with Sigma Plot software, version 9.0 (Jandel Scientific, San Rafael, CA, USA).

[3] = kynuramine [S] = 10 µM, pH 7.4, 37 °C, mean ± S.D., read-out: hMAO-A Ki

Ki [2, 3] [µM] | Structure (SMILES) | Nrf2 nuclear translocation ([1]; 5 µM and 20 µM, 3 h) | Ki [2] [µM] | Nrf2 nuclear translocation ([1]; 5 μM, 3 h) | Nrf2 nuclear translocation ([1]; until concentrations higher than 50 µM)
– | O=C(/C=C/c1ccc(O)c(O)c1)OCCc1ccccc1 [CAPE, caffeic acid phenethyl ester, reference compound] | induced Nrf2 nuclear translocation | 12 ± 2 | – | –
35 ± 4 | O=C(/C=C/c1ccc(O)c(O)c1)Oc1ccc(CC2SC(=O)NC2=O)cc1 (stereo not drawn) [Compound 2, 4-((2,4-Dioxothiazolidin-5-yl)methyl)phenyl (E)-3-(3,4-Dihydroxyphenyl)acrylate] | – | – | most active; also recorded: strongly induced Nrf2 translocation into the nucleus | –
> 100 | CCc1ccc(CCOc2ccc(CC3SC(=O)NC3=O)cc2)nc1 (stereo not drawn) [Pioglitazone, reference compound] | – | – | – | not able to induce Nrf2 nuclear translocations
